We go through 17 compounds from ChEMBL document CHEMBL1123366, “Antiinflammatory and aldose reductase inhibitory activity of some tricyclic arylacetic acids” (J Med Chem, 1986).

Where only a bound is given, the exact number is not on record here.

For experiment [1], the species on record is Rattus norvegicus. Briefly: Inhibition of carrageenan-induced inflammation of rat paw relative to phenylbutazone. It is filed as functional. In general terms: In the carrageenan paw model, swelling and tenderness develop within hours.
For experiment [2], the species on record is Mus musculus. In words: Analgesic activity in mice by mouse phenylquinone writhing assay relative to aspirin. It is filed as functional. A general note: An intraperitoneal irritant provokes the stretching counted in writhing tests.

On to `CC(C(=O)O)c1cc(O)c2c(c1)CCc1ccccc1C2=O` (centres undefined), for which the results for the Activity in experiment [1] and in experiment [2] were about 60 and 4, respectively.

With `O=C1Cc2ccc3c(c2O1)CCc1ccccc1C3=O`, the Activity in experiment [1] is recorded as 3; in experiment [2] it was about 1.

As for `CC(C(=O)O)c1cc(O)c2c(=O)c3ccccc3ccc2c1` (centres undefined), the Activity in experiment [1] is about 30; in experiment [2], about 6.

With `O=C(O)Cc1ccc2c(c1O)CCc1ccccc1C2=O`, the Activity in experiment [1] is 15; in experiment [2], about 8.

As for `O=C(O)Cc1ccc2c(c1)SCc1ccccc1C2=O` [TIOPINAC], the Activity in experiment [1] was 40; in experiment [2] it was 14.

Take `COc1ccc2c(c1)c(CC(=O)O)c(C)n2C(=O)c1ccc(Cl)cc1` [INDOMETHACIN]: the Activity in experiment [1] is recorded as 16; in experiment [2] it was 60.

Take `O=C(O)Cc1ccc2c(c1)OCc1ccccc1C2=O` [OXEPINAC]: the values for the Activity in experiment [1] and in experiment [2] were about 15 and 4, respectively.

Turning to `O=C(O)Cc1ccc2c(c1)CCc1ccc(O)cc1C2=O`, the Activity in experiment [1] is listed as under 0.2; in experiment [2], about 0.2.

For the compound `O=C(O)Cc1ccc2c(c1)CCc1cc(O)ccc1C2=O`, the Activity was about 0.4 in experiment [1] and about 0.6 in experiment [2].

On to `CC(C(=O)O)c1cccc(C(=O)c2ccccc2)c1` (centres undefined) [KETOPROFEN], for which the Activity in experiment [1] stood at 9; in experiment [2], 60.

On to `O=C(O)Cc1ccc2c(c1)CCc1ccccc1C2=O`, for which the Activity in experiment [1] is on record as 7; in experiment [2], 1.5.

On to `O=C(O)c1ccccc1Nc1cccc(C(F)(F)F)c1` [FLUFENAMIC ACID], for which the Activity in experiment [1] is about 6; in experiment [2], under 0.4.

`O=C(O)Cc1cc(O)c2c(c1)CCc1ccccc1C2=O`: the values for the Activity in experiment [1] and in experiment [2] were about 20 and 4, respectively.

As to `CC(C(=O)O)c1ccc2c(=O)c3ccccc3ccc2c1` (centres undefined), the values for the Activity in experiment [1] and in experiment [2] were 68 and 20, respectively.

As to `O=C(O)Cc1cc(O)c2c(=O)c3ccccc3ccc2c1`, the values for the Activity in experiment [1] and in experiment [2] were 5 and about 1, respectively.

Turning to `O=C(O)Cc1ccc2c(=O)c3ccccc3ccc2c1`, the Activity is 6 in experiment [1] and 2 in experiment [2].

As for `O=C(O)Cc1ccc2c(c1)CCc1cccc(O)c1C2=O`, the Activity in experiment [1] is recorded as under 0.2; in experiment [2], “>=0.4”.
